From ChEMBL document CHEMBL1909046, “DrugMatrix in vitro pharmacology data” come the findings set out here.

As usually defined, the IC50 is the point on the concentration scale where inhibition reaches its midpoint. As usually defined, the Ki is a measure of affinity in units of concentration, obtained from inhibition or displacement.

The target of experiment [1] is T1, Interstitial collagenase (Homo sapiens, UniProt P03956).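 Further: MMP-1 enzyme inhibition assay using a peptide substrate; in other assays of this panel Not Active means under 50% inhibition at 10 µM.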
T1 sequence (P03956 whole entry): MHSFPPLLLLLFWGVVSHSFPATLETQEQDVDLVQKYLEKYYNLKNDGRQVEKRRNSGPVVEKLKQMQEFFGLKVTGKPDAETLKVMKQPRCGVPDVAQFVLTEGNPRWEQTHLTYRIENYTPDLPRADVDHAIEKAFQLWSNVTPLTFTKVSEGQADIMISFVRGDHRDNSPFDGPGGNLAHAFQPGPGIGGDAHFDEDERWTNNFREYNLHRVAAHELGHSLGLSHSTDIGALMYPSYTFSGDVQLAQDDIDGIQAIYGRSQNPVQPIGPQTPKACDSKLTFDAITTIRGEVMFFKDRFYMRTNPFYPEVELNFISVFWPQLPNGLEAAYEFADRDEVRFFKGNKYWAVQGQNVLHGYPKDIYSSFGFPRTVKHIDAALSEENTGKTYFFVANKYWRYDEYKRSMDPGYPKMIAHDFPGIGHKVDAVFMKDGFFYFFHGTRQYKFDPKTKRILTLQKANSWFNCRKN
Briefly: biochemical. The class given is tissue-based, Rheumatoid synovial fibroblasts.

Experiment [2] addresses Mitogen-activated protein kinase 3 (Homo sapiens, UniProt P27361). Briefly: DRUGMATRIX: Protein Serine/Threonine Kinase, ERK1 enzyme inhibition (substrate: Myelin Basic Protein). On the set-up: species or system Escherichia coli. The note with it: Not Active = under 50% inhibition at 10 µM.
Experiment [3] concerns the target T2, Leukotriene C4 synthase (Cavia porcellus, UniProt A6XA80).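 Further: enzyme inhibition assay of leukotriene C4 synthase, using LTA4 as the substrate; in other assays of this panel Not Active means under 50% inhibition at 10 µM.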
T2 sequence (A6XA80 whole entry): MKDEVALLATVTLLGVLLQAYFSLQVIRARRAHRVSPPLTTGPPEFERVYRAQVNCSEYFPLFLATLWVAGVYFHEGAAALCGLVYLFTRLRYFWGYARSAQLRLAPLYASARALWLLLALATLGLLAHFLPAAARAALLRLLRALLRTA
The class given is tissue-based, Lung.

Experiment [4] addresses Carbonic anhydrase 2 (Homo sapiens, UniProt P00918). The experiment in a line: DRUGMATRIX: Carbonic Anhydrase II enzyme inhibition (substrate: 4-Nitrophenyl acetate (4-NPA)). The class given is tissue-based. The note with it: erythrocyte; Not Active = under 50% inhibition at 10 µM.
In experiment [5] the target is cGMP-specific 3',5'-cyclic phosphodiesterase (Homo sapiens, UniProt O76074). The experiment in a line: DRUGMATRIX: Phosphodiesterase PDE5 enzyme inhibition (substrate: [3H]cGMP + cGMP). The experiment is classed as tissue-based, Platelet. The note with it: platelet; Not Active = under 50% inhibition at 10 µM.
Experiment [6] addresses Glycine receptor (Rattus norvegicus, UniProt P22771+P24524+P07727+P20781). The experiment is classed as cell membranes, Wistar, Spinal cord, Membrane.
In experiment [7] the target is T3, Progesterone receptor (Bos taurus, UniProt Q690N0).
T3 sequence (Q690N0 whole entry): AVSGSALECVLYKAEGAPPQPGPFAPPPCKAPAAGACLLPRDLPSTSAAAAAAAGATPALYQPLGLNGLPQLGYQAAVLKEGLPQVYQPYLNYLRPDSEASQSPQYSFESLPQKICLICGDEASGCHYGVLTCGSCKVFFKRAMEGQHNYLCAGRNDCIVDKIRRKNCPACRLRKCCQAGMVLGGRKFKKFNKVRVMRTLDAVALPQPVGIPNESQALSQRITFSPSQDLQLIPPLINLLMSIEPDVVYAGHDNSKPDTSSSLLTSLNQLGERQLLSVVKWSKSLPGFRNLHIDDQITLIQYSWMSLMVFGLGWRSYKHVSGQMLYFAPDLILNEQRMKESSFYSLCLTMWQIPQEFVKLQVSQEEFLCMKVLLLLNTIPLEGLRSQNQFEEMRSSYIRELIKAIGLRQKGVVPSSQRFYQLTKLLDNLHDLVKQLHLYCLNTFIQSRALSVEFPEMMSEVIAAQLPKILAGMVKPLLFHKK
Briefly: DRUGMATRIX: Progesterone radioligand binding (ligand: [3H] R-5020). The class given is tissue-based, Uterus. The note with it: Not Active = under 50% inhibition at 10 µM; for Ki: read-out: Ki.

Chain of Mitogen-activated protein kinase 3 (P27361 whole entry): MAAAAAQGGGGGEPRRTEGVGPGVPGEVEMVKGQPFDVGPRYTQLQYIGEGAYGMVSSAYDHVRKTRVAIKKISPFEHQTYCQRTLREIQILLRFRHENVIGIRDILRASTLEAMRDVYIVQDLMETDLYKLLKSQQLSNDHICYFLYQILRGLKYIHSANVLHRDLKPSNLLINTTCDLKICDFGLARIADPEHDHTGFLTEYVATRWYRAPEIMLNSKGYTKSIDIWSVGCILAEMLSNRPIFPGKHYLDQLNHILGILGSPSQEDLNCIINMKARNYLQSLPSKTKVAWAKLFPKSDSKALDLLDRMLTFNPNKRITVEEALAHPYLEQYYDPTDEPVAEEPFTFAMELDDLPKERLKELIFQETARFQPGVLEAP

As for `CCC1(CCC(C)C)C(=O)NC(=O)NC1=O` [AMOBARBITAL], the IC50 entry in experiment [1], in experiment [2], in experiment [3], in experiment [4], in experiment [5] and in experiment [6] was “Not Active” each time. For the same compound, in experiment [7], the IC50 entry is given as “Not Active”.

`CC1(C)S[C@@H]2[C@H](NC(=O)[C@H](N)c3ccccc3)C(=O)N2[C@H]1C(=O)O` [AMPICILLIN]: the IC50 result in experiment [1], in experiment [2], in experiment [3], in experiment [4], in experiment [5] and in experiment [6] was “Not Active” in each case. Also, in experiment [7], the IC50 entry is given as “Not Active”.

For `COc1ccc(C2C(=O)c3ccccc3C2=O)cc1` [ANISINDIONE], the 50% inhibitory concentration (IC50) result in experiment [1], in experiment [2], in experiment [3], in experiment [4], in experiment [5] and in experiment [6] was “Not Active” in each case. Moreover, the half-inhibitory concentration (IC50) result in experiment [7] is “Not Active”.

In the case of `O=C1O[C@H]([C@@H](O)CO)C(O)=C1O` [ASCORBIC ACID], the 50% inhibitory concentration (IC50) entry in experiment [1], in experiment [2], in experiment [3], in experiment [4], in experiment [5] and in experiment [6] was “Not Active” in each case. The 50% inhibitory concentration (IC50) entry in experiment [7] is reported as “Not Active”.

Turning to `CN1[C@@H]2CC[C@H]1C[C@@H](OC(=O)C(CO)c1ccccc1)C2` (stereo partly drawn) [ATROPINE], the half-inhibitory concentration (IC50) entry in experiment [1], in experiment [2], in experiment [3], in experiment [4], in experiment [5] and in experiment [6] was “Not Active” in each case. Further, the IC50 result in experiment [7] is “Not Active”.

With `CC(C(=O)O)c1ccc2oc(-c3ccc(Cl)cc3)nc2c1` (stereo not drawn) [BENOXAPROFEN], the IC50 entry in experiment [1], in experiment [2], in experiment [3], in experiment [4], in experiment [5] and in experiment [6] was “Not Active” in each case. In experiment [7], the half-inhibitory concentration (IC50) result was “Not Active”.

As to `COc1ccc2cc3[n+](cc2c1OC)CCc1cc2c(cc1-3)OCO2.[Cl-]` [BERBERINE CHLORIDE], the half-maximal inhibitory concentration (IC50) result in experiment [1], in experiment [2], in experiment [3], in experiment [4], in experiment [5] and in experiment [6] was “Not Active” in each case. Besides, in experiment [7], the IC50 result is given as “Not Active”.

For the compound `O=C(O)CCNC(=O)c1ccccc1` [BETAMIPRON], the IC50 result in experiment [1], in experiment [2], in experiment [3], in experiment [4], in experiment [5] and in experiment [6] was “Not Active” in each case. Besides, the IC50 entry in experiment [7] is reported as “Not Active”.

Consider `CC(=O)Oc1ccc(C(c2ccc(OC(C)=O)cc2)c2ccccn2)cc1` [BISACODYL], for which the IC50 entry in experiment [1], in experiment [2], in experiment [3], in experiment [4], in experiment [5] and in experiment [6] was “Not Active” throughout. In addition, in experiment [7], the half-maximal inhibitory concentration (IC50) entry was “Not Active”.

In the case of `Cc1cc2c(OCC(CNC(C)(C)C)OC(=O)c3ccccc3)cccc2[nH]1` (stereo not drawn) [BOPINDOLOL], the IC50 entry in experiment [1], in experiment [2], in experiment [3], in experiment [4], in experiment [5] and in experiment [6] was “Not Active” each time. Further, the IC50 result in experiment [7] is “Not Active”.

Take `Brc1c(NC2=NCCN2)ccc2nccnc12` [BRIMONIDINE]: the IC50 entry in experiment [1], in experiment [2], in experiment [3], in experiment [4], in experiment [5] and in experiment [6] was “Not Active” throughout. In addition, the half-inhibitory concentration (IC50) entry in experiment [7] is recorded as “Not Active”.

On to `CN(C)[C@@H]1C(O)=C(C(N)=O)C(=O)[C@@]2(O)C(O)=C3C(=O)c4c(O)ccc(Cl)c4[C@@](C)(O)[C@H]3C[C@@H]12` [CHLORTETRACYCLINE], for which the IC50 entry in experiment [1], in experiment [2], in experiment [3], in experiment [4], in experiment [5] and in experiment [6] was “Not Active” each time. Besides, the half-inhibitory concentration (IC50) entry in experiment [7] is recorded as “Not Active”.

Regarding `CN/C(=N\CCSCc1nc[nH]c1C)NC#N` [CIMETIDINE], the IC50 entry in experiment [1], in experiment [2], in experiment [3], in experiment [4], in experiment [5] and in experiment [6] was “Not Active” each time. The IC50 result in experiment [7] is “Not Active”.

As to `COc1cc(N)c(Cl)cc1C(=O)NC1CCN(CCCOc2ccc(F)cc2)CC1OC` (stereo not drawn) [CISAPRIDE], the half-maximal inhibitory concentration (IC50) entry in experiment [1], in experiment [2], in experiment [3], in experiment [4], in experiment [5] and in experiment [6] was “Not Active” throughout. In experiment [7], the IC50 entry is recorded as “Not Active”.

Take `CCC(=O)O[C@]1(C(=O)CCl)[C@@H](C)C[C@H]2[C@@H]3CCC4=CC(=O)C=C[C@]4(C)[C@@]3(F)[C@@H](O)C[C@@]21C` [CLOBETASOL PROPIONATE]: the half-inhibitory concentration (IC50) entry in experiment [1], in experiment [2], in experiment [3], in experiment [4], in experiment [5] and in experiment [6] was “Not Active” throughout. Besides, the IC50 in experiment [7] (read-out: IC50) is 12 nM. Besides, the inhibitory constant (Ki) in experiment [7] turned out to be 1.52 nM.

With `O=C1CN=C(c2ccccc2Cl)c2cc([N+](=O)[O-])ccc2N1` [CLONAZEPAM], the half-maximal inhibitory concentration (IC50) result in experiment [1], in experiment [2], in experiment [3], in experiment [4], in experiment [5] and in experiment [6] was “Not Active” throughout. For the same compound, in experiment [7], the IC50 result is reported as “Not Active”.

`Nc1ccn([C@@H]2O[C@H](CO)[C@@H](O)[C@@H]2O)c(=O)n1` [CYTARABINE]: the IC50 result in experiment [1], in experiment [2], in experiment [3], in experiment [4], in experiment [5] and in experiment [6] was “Not Active” each time. For the same compound, in experiment [7], the IC50 entry is reported as “Not Active”.

`C[C@@H]1C[C@H]2[C@@H]3CCC4=CC(=O)C=C[C@]4(C)[C@@]3(F)[C@@H](O)C[C@]2(C)[C@H]1C(=O)CO` [DESOXIMETASONE]: the IC50 entry in experiment [1], in experiment [2], in experiment [3], in experiment [4], in experiment [5] and in experiment [6] was “Not Active” in each case. For the same compound, the IC50 in experiment [7] (read-out: IC50) turned out to be 84 nM. The Ki in experiment [7] came to 11 nM.

In the case of `C[C@@H]1C[C@H]2[C@@H]3CCC4=CC(=O)C=C[C@]4(C)[C@@]3(F)[C@@H](O)C[C@]2(C)[C@@]1(O)C(=O)CO` [DEXAMETHASONE], the IC50 entry in experiment [1], in experiment [2], in experiment [3], in experiment [4], in experiment [5] and in experiment [6] was “Not Active” each time. Also, the half-maximal inhibitory concentration (IC50) in experiment [7] (read-out: IC50) is 23300 nM. In addition, the Ki in experiment [7] stood at 3040 nM.

Regarding `CN(C)CC[C@@H](c1ccc(Cl)cc1)c1ccccn1` [DEXCHLORPHENIRAMINE], the half-maximal inhibitory concentration (IC50) entry in experiment [1], in experiment [2], in experiment [3], in experiment [4], in experiment [5] and in experiment [6] was “Not Active” in each case. In addition, the IC50 result in experiment [7] is “Not Active”.
